The record followed here is US20040171489A1, “Synergistic active compound combinations for controlling harmful plants” (priority 1998, published 2004).

In series [1] the test system is Monochoria vaginalis. The series can be described thus: Example 22 field trial, 2-leaf stage: herbicidal effect. The class given is in vivo. The note with it: 14 days after application. As to the method:
(§1) The herbicidal efficacy of the active compounds or active compound mixtures was scored visually using the treated plots in comparison to untreated control plots. The damage and development of all above-ground parts of the plants were recorded. Scoring was carried out using a percentage scale (100% effect=all plants killed; 50% effect=50% of the plants and the green parts of the plants killed; 0% effect=no noticeable effect=like control plot. The scores of in each case 4 plots were averaged.
(§2) If the observed activity values already exceed the formal sum of the values for the trials with the individual applications, they also exceed the expected value according to Colby which is calculated using the following formula and which is likewise considered to be an indication of synergism (cf. S. R. Colby; in Weeds 15 (1967) p. 20 to 22):
(§3) Crop plants were grown outdoors on plots under natural outdoor conditions, and seeds or rhizome pieces of typical harmful plants were laid out or the natural weed growth was utilized. Treatment with the compositions according to the invention was carried out after the harmful plants had emerged and the crop plants were, generally, at the 2- to 4-leaf stage; in some cases (as stated), application of individual active compounds or active compound combinations was carried out pre-emergence (cf. Section 1) or post-emergence (cf. Section 2) or as a sequential treatment partly pre-emergence and/or post-emergence. After the application, for example 2, 4, 6 and 8 weeks after the application, the effect of the preparations was scored visually by comparison with untreated controls (cf. scoring in Section 1). In the field trial as well, the compositions according to the invention have synergistic herbicidal activity against a broad spectrum of economically important weed grasses and broad-leaved weeds. […] Moreover, the effects in essential phases of the scoring period were above the expected values according to Colby, also indicating synergism. In contrast, the crop plants were, as a consequence of the treatments with the herbicidal compositions, damaged only to a small degree, if at all.

The subject of series [2] is Oryza sativa (rice). The series can be described thus: Example 22 field trial, 2-leaf stage: crop damage. The series is classed as in vivo. Particulars: 14 days after application. As to the method: as §1, §2, §3
The subject of series [3] is Matricaria chamomilla. Description: Example 14 field trial, 2- to 4-leaf stage: herbicidal effect. The note with it: 28 days after application. The class given is in vivo. As to the method: as §1, §2, §3
In series [4] the test system is summer wheat. Description: Example 14 field trial, 2- to 4-leaf stage: crop damage. The series is classed as in vivo, Triticum aestivum. Particulars: 28 days after application. As to the method: The damage and development of all above-ground parts of the plants were recorded.
Crop plants were grown outdoors on plots under natural outdoor conditions, and seeds or rhizome pieces of typical harmful plants were laid out or the natural weed growth was utilized.

Series [5] relates to Galium aparine. Description: Example 10 pre-emergence application, fall: herbicidal effect. The series is classed as in vivo. The note with it: 169 days after application.
Description: (§4) Seeds or rhizome pieces of monocotyledonous and dicotyledonous weed plants are placed in sandy loam soil in pots and covered with soil. The compositions, formulated in the form of concentrated aqueous solutions, wettable powders or emulsion concentrates, are then applied to the surface of the soil cover as aqueous solution, suspension or emulsion at an application rate of 600 to 800 l of water/ha (converted), in various dosages. After the treatment, the pots are placed in a greenhouse and kept under good growth conditions for the weeds. After the test plants have emerged, the damage to the plants or the negative effects on the emergence is scored visually after a test period of 3 to 4 weeks by comparison with untreated controls. As shown by the test results, the compositions according to the invention have good herbicidal pre-emergence activity against a broad spectrum of weed grasses and broad-leaved weeds.
as §1, §2, §3

Series [6] deals with winter wheat. The series can be described thus: Example 10 pre-emergence application, fall: crop damage. The series is classed as in vivo, Triticum aestivum. The note with it: 250 g of ai/ha; 169 days after application.
Description: as §4, §1, §2, §3

Series [7] deals with Veronica hederofolia. Description: Example 8 field trial, 4-leaf stage: herbicidal effect. Particulars: 28 days after application. The class given is in vivo. As to the method:
as §1, §2
as §3, with “In contrast, the crop plants were, as a consequence of the treatments with the herbicidal compositions, damaged only to a small degree, if at all.” left out

Series [8] relates to winter wheat. Description: Example 8 field trial, 4-leaf stage: crop damage. The series is classed as in vivo, Triticum aestivum. Particulars: 28 days after application. As to the method: as §1, §2
as §3, with “In contrast, the crop plants were, as a consequence of the treatments with the herbicidal compositions, damaged only to a small degree, if at all.” left out

For series [9], the system named is winter wheat. Description: Example 15 field trial, 2- to 4-leaf stage: crop damage. The series is classed as in vivo, Triticum aestivum. The note with it: 28 days after application. As to the method: as §1, §2, §3
In series [10] the test system is Lamium amolexicaule. The series can be described thus: Example 15 field trial, 2- to 4-leaf stage: herbicidal effect. The series is classed as in vivo. Particulars: 28 days after application. As to the method: as §1, §2, §3
Series [11] concerns Capsella bursa-pastoris. The series can be described thus: Example 9 field trials, application 1-3 leaf stage broad-leaved weeds: herbicidal effect. The note with it: 100 g of ai/ha; 120 to 160 days after application. The series is classed as in vivo. As to the method: as §1, §2, §3
Series [12] concerns Alopecurus myosuroides. Described as above. The class given is in vivo. Particulars: 100 g of ai/ha; 120 to 160 days after application. As to the method: as §1, §2, §3
Series [13] deals with winter wheat. The series can be described thus: Example 9 field trials, application 1-3 leaf stage broad-leaved weeds: crop damage. The note with it: 100 g of ai/ha; 120 to 160 days after application. The series is classed as in vivo, Triticum aestivum. As to the method: as §1, §2
as §3, with “In contrast, the crop plants were, as a consequence of the treatments with the herbicidal compositions, damaged only to a small degree, if at all.” left out

The test system of series [14] is winter barley. The series is described as above. The class given is in vivo, Hordeum vulgare. The note with it: 100 g of ai/ha; 120 to 160 days after application. As to the method: as §1, §2
as §3, with “In contrast, the crop plants were, as a consequence of the treatments with the herbicidal compositions, damaged only to a small degree, if at all.” left out

Series [15] relates to winter wheat. Description: Example 11 field trial, 2- to 4-leaf stage: crop damage. The class given is in vivo, Triticum aestivum. Particulars: 28 days after application. As to the method:
as §1, §2, §3

The subject of series [16] is Capsella bursa-pastoris. The series can be described thus: Example 11 field trial, 2- to 4-leaf stage: herbicidal effect. The series is classed as in vivo. The note with it: 28 days after application. As to the method: as §1, §2, §3

As for `COP(=S)(OC)SCC(=O)N(c1ccc(Cl)cc1)C(C)(C)C` [(B1.6.5), anilofos, reference compound], the “herbicidal effect, MOOVA” value in series [1] (250 g of ai/ha) was found to be 95%. In addition, the “damage, ORYSA” value in series [2] (250 g of ai/ha) worked out at 5%.
As to `CCOC(=O)C(Cl)Cc1cc(-n2nc(C)n(C(F)F)c2=O)c(F)cc1Cl` (centres unmarked) [(B2.6.3), carfentrazone-ethyl, reference compound], in series [1] (60 g of ai/ha), the “herbicidal effect, MOOVA” value amounted to 47%. In addition, the “damage, ORYSA” value in series [2] (60 g of ai/ha) is 0%.
With `Cc1cc(Cl)ccc1O[C@@H](C)C(=O)O` [(B2.2.4), mecoprop-P], the “herbicidal effect, MATCH” value is given as 54% in series [3] (750 g of ai/ha) and 63% in [3] (1500 g of ai/ha). Besides, the “damage, TRZAS” value in series [4] (750 g of ai/ha) and in series [4] (1500 g of ai/ha) was 0% each time.
In the case of `CNC1=C(c2cccc(C(F)(F)F)c2)C(=O)C(c2ccccc2)O1` (centres unmarked) [(B3.4.4), flurtamone], the “herbicidal effect, GALAP” value in [5] (250 g of ai/ha) amounted to 50%. Moreover, the “damage, TRZAW” value in series [6] is on record as 2%.
As to `COc1cc(Cl)cc(OCC(C)Nc2nc(N)nc(C(C)(C)F)n2)c1` (centres unmarked) [(A5), 4-amino-6-(1-fluoro-1-methylethyl)-2-[2-(3-chloro-5-methoxyphenoxy)-1-methylethylamino]-1,3,5-triazine], the “herbicidal effect, VERHE” value in [7] (25 g of ai/ha) is 14%; in series [7] (50 g of ai/ha), 22%; in series [7] (100 g of ai/ha), 34%. Besides, the “damage, TRZAW” value in [8] (25 g of ai/ha), in series [8] (50 g of ai/ha) and in [8] (100 g of ai/ha) was 0% in each case.
As for `COc1cc(OC)nc(NC(=O)NS(=O)(=O)N(C)S(C)(=O)=O)n1` [(B2.1.4), amidosulfuron, reference compound], the “damage, TRZAW” value in series [9] (12.5 g of ai/ha) and in series [9] (25 g of ai/ha) was 0% in each case. The entries for the “herbicidal effect, LAMAM” value in series [10] (12.5 g of ai/ha) and in series [10] (25 g of ai/ha) were 10% and 25%, respectively.
Regarding `CCC(CC)Nc1c([N+](=O)[O-])cc(C)c(C)c1[N+](=O)[O-]` [(B1.2.2), pendimethalin], the “herbicidal effect, GALAP” value in series [5] (1000 g of ai/ha) is 30%.
Regarding `CC(C)(F)c1nc(N)nc(NC(CCCc2ccccc2)C2CC2)n1` (centres unmarked) [(A2), 4-amino-6-(1-fluoro-1-methylethyl)-2-(4-phenyl-1-cyclopropylbutylamino)-1,3,5-triazine], in series [11], the “herbicidal effect, CAPBP” value was 90%. The “herbicidal effect, ALOMY” value in [12] came to 0%. In series [13], the “damage, TRZAW” value is reported as 0%. Moreover, in [14], the “damage, HORVW” value came out at 0%.
For the compound `O=C(Nc1ccc(F)cc1F)c1cccnc1Oc1cccc(C(F)(F)F)c1` [(B3.4.2), diflufenican, reference compound], the “damage, TRZAW” value in series [15] (75 g of ai/ha) and in series [15] (150 g of ai/ha) was 0% each time. For the same compound, the “herbicidal effect, CAPPBP” value was 45% in [16] (75 g of ai/ha) and 67% in series [16] (150 g of ai/ha).
